Source: ChEMBL document CHEMBL1141305, “Daphnipaxianines A-D, alkaloids from Daphniphyllum paxianum” (J Nat Prod, 2007)
The source made the active and inactive calls.

What was measured:
Format in all cases: functional, cell-based
[1] = system: MEF; experiment: Cytotoxicity against mouse Bax and Bak deficient MEF cells
[2] = system: HCT-116; experiment: Cytotoxicity against human HCT116 cells
[3] = system: HCT-116; experiment: Cytotoxicity against human Bax deficient HCT116 cells

Measured: Activity

C[C@@H]1CN2C[C@H]3CCC4=C5[C@](O)(CC4)CC[C@@]54C(=O)[C@@H]1C[C@@H]2[C@@]34C
inactive: [1] | [2] | [3]

C[C@@H]1CN2C[C@H]3CC[C@@]4(O)CC(=O)C5=C4[C@@]4(CC5)C(=O)[C@@H]1C[C@@H]2[C@@]34C
inactive: [1] | [2] | [3]

C[C@@H]1CN2C[C@H]3CC[C@]4(O)CC(=O)C5=C4[C@@]4(CC5)C(=O)[C@@H]1C[C@@H]2[C@@]34C
inactive: [1] | [2] | [3]

COC(=O)[C@@H]1C[C@]23CN4CC(CCC5(CCC1C52)C4)[C@@]31CC[C@](OC)(C(C)C)OC1 (some centres not stated)
inactive: [1] | [2] | [3]
